We go through 27 compounds from patent US8623869B2, “Compounds useful as inhibitors of ATR kinase” (Vertex Pharmaceuticals Incorporated, priority 2010, dated 2014).

The structures appear in SMILES notation. Some results are limits rather than exact numbers.

The target of the assay is T1, full-length ATR (Homo sapiens, UniProt Q13535).
T1 construct: Assays were carried out at 25° C. in the presence of 5 nM full-length ATR
T1 sequence (Q13535 whole entry): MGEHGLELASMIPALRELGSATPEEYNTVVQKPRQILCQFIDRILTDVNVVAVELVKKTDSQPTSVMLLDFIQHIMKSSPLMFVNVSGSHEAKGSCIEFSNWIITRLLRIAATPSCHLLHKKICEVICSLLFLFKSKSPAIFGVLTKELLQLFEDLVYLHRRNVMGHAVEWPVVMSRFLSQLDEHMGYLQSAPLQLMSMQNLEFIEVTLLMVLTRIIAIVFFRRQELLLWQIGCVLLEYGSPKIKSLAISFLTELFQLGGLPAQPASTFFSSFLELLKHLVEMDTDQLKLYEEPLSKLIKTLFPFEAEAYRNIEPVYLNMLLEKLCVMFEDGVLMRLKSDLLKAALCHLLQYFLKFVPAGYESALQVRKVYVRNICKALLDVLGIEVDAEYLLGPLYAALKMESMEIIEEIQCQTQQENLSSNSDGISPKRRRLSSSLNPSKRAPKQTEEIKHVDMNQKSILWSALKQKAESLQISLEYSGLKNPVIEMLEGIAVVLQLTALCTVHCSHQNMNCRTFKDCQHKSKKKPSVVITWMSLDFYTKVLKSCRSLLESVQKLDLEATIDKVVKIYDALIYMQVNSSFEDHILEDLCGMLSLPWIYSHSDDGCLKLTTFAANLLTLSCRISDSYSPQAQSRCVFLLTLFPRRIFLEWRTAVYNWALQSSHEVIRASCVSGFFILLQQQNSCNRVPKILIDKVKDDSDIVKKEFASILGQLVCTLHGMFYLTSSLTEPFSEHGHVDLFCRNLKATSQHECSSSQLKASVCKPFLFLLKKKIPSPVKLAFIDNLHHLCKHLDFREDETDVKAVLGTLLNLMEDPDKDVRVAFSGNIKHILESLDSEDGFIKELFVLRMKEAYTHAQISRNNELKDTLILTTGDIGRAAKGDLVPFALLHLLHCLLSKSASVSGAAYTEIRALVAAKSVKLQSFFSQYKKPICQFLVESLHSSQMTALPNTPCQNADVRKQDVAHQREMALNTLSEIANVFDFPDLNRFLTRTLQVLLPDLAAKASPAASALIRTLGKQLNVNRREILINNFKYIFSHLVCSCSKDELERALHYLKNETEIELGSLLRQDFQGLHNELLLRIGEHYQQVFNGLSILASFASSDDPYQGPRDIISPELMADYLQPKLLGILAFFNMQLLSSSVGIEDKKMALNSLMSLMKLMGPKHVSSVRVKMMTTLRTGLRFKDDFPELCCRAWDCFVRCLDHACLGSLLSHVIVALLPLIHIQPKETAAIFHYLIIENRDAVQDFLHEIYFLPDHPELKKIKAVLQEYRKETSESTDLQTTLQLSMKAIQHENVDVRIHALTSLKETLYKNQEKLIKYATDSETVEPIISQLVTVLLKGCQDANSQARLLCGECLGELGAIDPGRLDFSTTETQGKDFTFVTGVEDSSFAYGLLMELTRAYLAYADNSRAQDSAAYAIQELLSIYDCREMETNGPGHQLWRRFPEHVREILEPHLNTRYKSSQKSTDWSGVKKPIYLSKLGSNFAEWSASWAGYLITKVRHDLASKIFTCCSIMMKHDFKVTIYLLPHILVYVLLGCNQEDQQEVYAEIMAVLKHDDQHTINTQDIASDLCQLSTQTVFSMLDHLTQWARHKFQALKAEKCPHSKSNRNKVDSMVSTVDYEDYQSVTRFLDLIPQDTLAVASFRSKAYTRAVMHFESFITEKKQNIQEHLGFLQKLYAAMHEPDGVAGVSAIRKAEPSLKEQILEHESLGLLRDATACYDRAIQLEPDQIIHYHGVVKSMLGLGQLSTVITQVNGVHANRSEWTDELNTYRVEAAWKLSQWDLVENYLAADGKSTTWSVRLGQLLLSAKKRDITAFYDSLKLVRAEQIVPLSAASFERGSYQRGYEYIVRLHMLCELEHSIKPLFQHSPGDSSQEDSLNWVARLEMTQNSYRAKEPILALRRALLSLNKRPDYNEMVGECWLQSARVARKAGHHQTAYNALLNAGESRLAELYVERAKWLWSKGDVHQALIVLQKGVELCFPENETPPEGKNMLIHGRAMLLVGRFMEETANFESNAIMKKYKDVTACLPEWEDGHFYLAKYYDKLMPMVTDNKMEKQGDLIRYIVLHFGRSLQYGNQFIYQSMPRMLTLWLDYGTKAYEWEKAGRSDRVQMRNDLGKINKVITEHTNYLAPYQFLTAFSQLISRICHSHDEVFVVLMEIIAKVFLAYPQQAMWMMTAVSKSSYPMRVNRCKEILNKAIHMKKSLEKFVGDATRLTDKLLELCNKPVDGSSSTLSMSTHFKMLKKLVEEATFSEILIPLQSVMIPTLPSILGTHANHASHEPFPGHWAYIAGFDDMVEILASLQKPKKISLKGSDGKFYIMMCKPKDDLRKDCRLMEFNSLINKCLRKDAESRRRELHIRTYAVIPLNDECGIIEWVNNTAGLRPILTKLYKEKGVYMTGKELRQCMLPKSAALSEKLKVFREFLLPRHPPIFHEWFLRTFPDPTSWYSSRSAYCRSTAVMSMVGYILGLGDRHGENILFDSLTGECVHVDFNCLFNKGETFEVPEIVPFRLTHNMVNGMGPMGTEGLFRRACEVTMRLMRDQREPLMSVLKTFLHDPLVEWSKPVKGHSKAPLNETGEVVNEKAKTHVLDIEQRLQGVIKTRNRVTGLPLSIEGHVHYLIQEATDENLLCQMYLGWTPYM
The assay is described as follows: ATR Inhibition Assay (radioactive-phosphate incorporation). In kind it is biochemical. The conditions noted are these: Ki(app); 5 nM full-length ATR, 10 μM ATP, 800 μM target peptide, 25° C. As for the experimental part:
Compounds were screened for their ability to inhibit ATR kinase using a radioactive-phosphate incorporation assay. Assays were carried out in a mixture of 50 mM Tris/HCl (pH 7.5), 10 mM MgCl2 and 1 mM DTT. Final substrate concentrations were 10 μM [γ-33P]ATP (3mCi 33P ATP/mmol ATP, Perkin Elmer) and 800 μM target peptide (ASELPASQPQPFSAKKK).
Assays were carried out at 25° C. in the presence of 5 nM full-length ATR. An assay stock buffer solution was prepared containing all of the reagents listed above, with the exception of ATP and the test compound of interest. 13.5 μL of the stock solution was placed in a 96 well plate followed by addition of 2 μL of DMSO stock containing serial dilutions of the test compound (typically starting from a final concentration of 15 μM with 3-fold serial dilutions) in duplicate (final DMSO concentration 7%). The plate was pre-incubated for 10 minutes at 25° C. and the reaction initiated by addition of 15 μL [γ-33P]ATP (final concentration 10 μM).
The reaction was stopped after […] by the addition of 30 μL 0.1M phosphoric acid containing 2 mM ATP. A multiscreen phosphocellulose filter 96-well plate (Millipore, Cat no. MAPHN0B50) was pretreated with 100 μL 0.2M phosphoric acid prior to the addition of 45 μL of the stopped assay mixture. The plate was washed with 5×200 μL 0.2M phosphoric acid. After drying, 100 μL Optiphase ‘SuperMix’ liquid scintillation cocktail (Perkin Elmer) was added to the well prior to scintillation counting (1450 Microbeta Liquid Scintillation Counter, Wallac).
After removing mean background values for all of the data points, Ki(app) data were calculated from non-linear regression analysis of the initial rate data using the Prism software package (GraphPad Prism version 3.0cx for Macintosh, GraphPad Software, San Diego Calif., USA).
Take `CC(C)S(=O)(=O)c1ccc(-c2cnc3[nH]cc(-c4cccnc4)c3n2)cc1` [Compound I-1, 2-(4-Isopropylsulfonylphenyl)-7-(3-pyridyl)-5H-pyrrolo[2,3-b]pyrazine]: the Ki was 10 to 50 nM.

Regarding `CC(C)S(=O)(=O)c1ccc(-c2cnc3[nH]cc(C#Cc4ccccc4)c3n2)cc1` [Compound I-2, 2-(4-Isopropylsulfonylphenyl)-7-(2-phenylethynyl)-5H-pyrrolo[2,3-b]pyrazine], the Ki lay in the range of 10 to 50 nM.

As for `CC(C)S(=O)(=O)c1ccc(-c2cnc3[nH]cc(-c4cc(-c5ccccc5)no4)c3n2)cc1` [Compound I-3, 5-[2-(4-Isopropylsulfonylphenyl)-5H-pyrrolo[2,3-b]pyrazin-7-yl]-3-phenyl-isoxazole], the Ki was at most 10 nM.

For the compound `CC(N)c1cccc(-c2cc(-c3c[nH]c4ncc(-c5ccc(S(=O)(=O)C(C)C)cc5)nc34)on2)c1` (stereo not drawn) [Compound I-4, 1-[3-[5-[2-(4-isopropylsulfonylphenyl)-5H-pyrrolo[2,3-b]pyrazin-7-yl]isoxazol-3-yl]phenyl]ethanamine], the Ki was at most 10 nM.

As to `CC(C)S(=O)(=O)c1ccc(-c2cnc3[nH]cc(-c4ccccc4)c3n2)cc1` [Compound I-5, 2-(4-isopropylsulfonylphenyl)-7-phenyl-5H-pyrrolo[2,3-b]pyrazine], the Ki was over 50 nM.

For `CC(C)S(=O)(=O)c1ccc(-c2cnc3[nH]cc(-c4cnc5[nH]ccc5c4)c3n2)cc1` [Compound I-6, 2-(4-isopropylsulfonylphenyl)-7-(1H-pyrrolo[2,3-b]pyridin-5-yl)-5H-pyrrolo[2,3-b]pyrazine], the Ki was at most 10 nM.

For `CCn1cc(-c2c[nH]c3ncc(-c4ccc(S(=O)(=O)C(C)C)cc4)nc23)cn1` [Compound I-7, 7-(1-ethylpyrazol-4-yl)-2-(4-isopropylsulfonylphenyl)-5H-pyrrolo[2,3-b]pyrazine], the Ki is over 50 nM.

`CC(C)S(=O)(=O)c1ccc(-c2cnc3[nH]cc(-c4ccccc4C#N)c3n2)cc1` [Compound I-8, 2-[2-(4-isopropylsulfonylphenyl)-5H-pyrrolo[2,3-b]pyrazin-7-yl]benzonitrile]: the Ki was over 50 nM.

Take `CC(C)S(=O)(=O)c1ccc(-c2cnc3[nH]cc(-c4cnc(N)cn4)c3n2)cc1` [Compound I-9, 5-[2-(4-isopropylsulfonylphenyl)-5H-pyrrolo[2,3-b]pyrazin-7-yl]pyrazin-2-amine]: the Ki is over 50 nM.

Take `CC(C)S(=O)(=O)c1ccc(-c2cnc3[nH]cc(-c4ccncc4)c3n2)cc1` [Compound I-10, 2-(4-isopropylsulfonylphenyl)-7-(4-pyridyl)-5H-pyrrolo[2,3-b]pyrazine]: the Ki is 10 to 50 nM.

In the case of `CC(C)S(=O)(=O)c1ccc(-c2cnc3[nH]cc(-c4ccc(OCCCN(C)C)nc4)c3n2)cc1` [Compound I-11, 3[[5-[2-(4-isopropylsulfonylphenyl)-5H-pyrrolo[2,3-b]pyrazin-7-yl]-2-pyridyl]oxy]-N,N-dimethyl-propan-1-amine], the Ki is over 50 nM.

For `CC(C)S(=O)(=O)c1ccc(-c2cnc3[nH]cc(-c4cccc5[nH]ccc45)c3n2)cc1` [Compound I-12, 7-(1H-indol-4-yl)-2-(4-isopropylsulfonylphenyl)-5H-pyrrolo[2,3-b]pyrazine], the Ki was over 50 nM.

With `CC(C)S(=O)(=O)c1ccc(-c2cnc3[nH]cc(-c4cnc(N)nc4)c3n2)cc1` [Compound I-13, 5-[2-(4-isopropylsulfonylphenyl)-5H-pyrrolo[2,3-b]pyrazin-7-yl]pyrimidin-2-amine], the Ki was at most 10 nM.

On to `CC(C)S(=O)(=O)c1ccc(-c2cnc3[nH]cc(-c4ccccc4O)c3n2)cc1` [Compound I-14, 2-[2-(4-isopropylsulfonylphenyl)-5H-pyrrolo[2,3-b]pyrazin-7-yl]phenol], for which the Ki was 10 to 50 nM.

For `COc1ccccc1-c1c[nH]c2ncc(-c3ccc(S(=O)(=O)C(C)C)cc3)nc12` [Compound I-15, 2-(4-isopropylsulfonylphenyl)-7-(2-methoxyphenyl)-5H-pyrrolo[2,3-b]pyrazine], the Ki is over 50 nM.

`CC(C)S(=O)(=O)c1ccc(-c2cnc3[nH]cc(-c4ccccc4CO)c3n2)cc1` [Compound I-16, [2-[2-(4-isopropylsulfonylphenyl)-5H-pyrrolo[2,3-b]pyrazin-7-yl]phenyl]methanol]: the Ki was over 50 nM.

In the case of `COCc1ccccc1-c1c[nH]c2ncc(-c3ccc(S(=O)(=O)C(C)C)cc3)nc12` [Compound I-17, 2-(4-isopropylsulfonylphenyl)-7-[2-(methoxymethyl)phenyl]-5H-pyrrolo[2,3-b]pyrazine], the Ki was over 50 nM.

Regarding `CC(C)S(=O)(=O)c1ccc(-c2cnc3[nH]cc(-c4ccccc4C(N)=O)c3n2)cc1` [Compound I-18, 2-[2-(4-isopropylsulfonylphenyl)-5H-pyrrolo[2,3-b]pyrazin-7-yl]benzamide], the Ki was over 50 nM.

With `CC(C)S(=O)(=O)c1ccc(-c2cnc3[nH]cc(-c4ccccc4C(=O)N(C)C)c3n2)cc1` [Compound I-19, 2-[2-(4-isopropylsulfonylphenyl)-5H-pyrrolo[2,3-b]pyrazin-7-yl]-N,N-dimethyl-benzamide], the Ki was over 50 nM.

For the compound `CC(C)S(=O)(=O)c1ccc(-c2cnc3[nH]cc(-c4scc5c4OCCO5)c3n2)cc1` [Compound I-20, 7-(2,3-dihydrothieno[3,4-b][1,4]dioxin-5-yl)-2-(4-isopropylsulfonylphenyl)-5H-pyrrolo[2,3-b]pyrazine], the Ki lay within 10 to 50 nM.

`CC(C)S(=O)(=O)c1ccc(-c2cnc3[nH]cc(-c4cscc4C#N)c3n2)cc1` [Compound I-21, 4-[2-(4-isopropylsulfonylphenyl)-5H-pyrrolo[2,3-b]pyrazin-7-yl]thiophene-3-carbonitrile]: the Ki was over 50 nM.

For the compound `CC(C)S(=O)(=O)c1ccc(-c2cnc3[nH]cc(-c4ccsc4)c3n2)cc1` [Compound I-22, 2-(4-isopropylsulfonylphenyl)-7-(3-thienyl)-5H-pyrrolo[2,3-b]pyrazine], the Ki lay within 10 to 50 nM.

For `CC(C)S(=O)(=O)c1ccc(-c2cnc3[nH]cc(-c4ccc(F)nc4)c3n2)cc1` [Compound I-23, 7-(6-fluoro-3-pyridyl)-2-(4-isopropylsulfonylphenyl)-5H-pyrrolo[2,3-b]pyrazine], the Ki was in the range of 10 to 50 nM.

With `CC(C)S(=O)(=O)c1ccc(-c2cnc3[nH]cc(-c4cccnc4F)c3n2)cc1` [Compound I-24, 7-(2-fluoro-3-pyridyl)-2-(4-isopropylsulfonylphenyl)-5H-pyrrolo[2,3-b]pyrazine], the Ki is at most 10 nM.

For `Cc1noc(C)c1-c1c[nH]c2ncc(-c3ccc(S(=O)(=O)C(C)C)cc3)nc12` [Compound I-25, 4-[2-(4-isopropylsulfonylphenyl)-5H-pyrrolo[2,3-b]pyrazin-7-yl]-3,5-dimethyl-isoxazole], the Ki was over 50 nM.

For the compound `Cc1ccc(-c2c[nH]c3ncc(-c4ccc(S(=O)(=O)C(C)C)cc4)nc23)s1` [Compound I-26, 2-(4-isopropylsulfonylphenyl)-7-(5-methyl-2-thienyl)-5H-pyrrolo[2,3-b]pyrazine], the Ki was 10 to 50 nM.

For the compound `Cc1cscc1-c1c[nH]c2ncc(-c3ccc(S(=O)(=O)C(C)C)cc3)nc12` [Compound I-27, 2-(4-isopropylsulfonylphenyl)-7-(4-methyl-3-thienyl)-5H-pyrrolo[2,3-b]pyrazine], the Ki was over 50 nM.
